For data set [1], the system named is classical complement pathway. The data set can be described thus: In vitro haemolysis assay (inhibition of classical complement pathway). Format: cell-based, human. The note with it: for IC50: Table 3, human serum, sensitized sheep red blood cells, read-out: IC50[nM], in vitro analysis of inhibition of hemolysis. The essentials:
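Serially diluted compound (9 points) was preincubated 15 min at room temperature with diluted human serum, titrated per batch to give 70-90% maximal haemolysis, in Tris/casein buffer pH 7.4 with Mg2+/Ca2+. Antibody-sensitized sheep erythrocytes were then added for 30 min at 37° C, and the reaction was stopped with EDTA. Haemolysis was read at A405, with IC50 from 4PL fit.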

In a further data set the target is T1, Human C3 (Homo sapiens, UniProt P01024).
T1 construct: purchased Complement tech A1 13c (so in the source)
Kind of data set: Affinity measurement by surface plasmon resonance (SPR) with immobilized C3. Format: binding. The note with it: Table 7; immobilized C3, 25° C., pH 7.4. As for the experimental part:
Surface plasmon resonance (SPR) was used to characterize peptides with respect to their binding affinity (Kd) for C3. Human C3 (Complement tech cat #A1 13c) was immobilised on individual flow cells of CM5 sensor chips (GE Healthcare) using standard amine coupling to a density of approximately 3000 resonance units (RU) in a buffer consisting of 10 mM phosphate pH 7.4, 150 mM NaCl, 0.05% Tween20. For interaction experiments a multi-cycle experiment approach was used and performed using either a Biacore™ T200 or Biacore™ X100 instrument (GE Healthcare) at 25° C. Peptides were injected in increasing concentration series (5-8 different concentrations) for 60-120 s at a flow rate of 30 μL/min in a buffer consisting of 10 mM Tris buffer at pH 7.4, with 150 mM NaCl and 0.05% Tween20. This was followed by a dissociation period for up to 10 min. […] Sensorgrams were double-referenced (reference surface, blanks) prior to analysis of the kinetic profiles by globally fitting data to a 1:1 Langmuir binding model to obtain association and dissociation rates for calculation of the equilibrium dissociation constant Kd. Each peptide was tested at in at least 2 independent experiments.

Data set [2] in a line: Solubility test at 10 mg/mL (visual inspection and light scattering). Format: physicochemical.
Setting [3] is: Table 4, valine 3 versus isoleucine 3 pairs, read-out: CP hemolysis IC50.

pIC50, pKd: −log10 of the molar value. Like-named read-outs stand apart in the source and are kept apart here. Starred links: 1 amine or outer side, 2 acyl side, 3 side chain; linkers in the order of their positions; H or OH if unused. Positions of bridges follow the written chain, without caps; N, C: chain ends. Non-standard residues stand in square brackets, D forms with d. Residues, ends and D or L forms follow the SMILES beside them. Groups on a side chain read outwards from the residue. *: point of attachment. C20 diacid = O=C(O)CCCCCCCCCCCCCCCCCCC(=O)*; Trp(1-Me) = Cn1cc(C[C@H](N)C(=O)O)c2ccccc21; Abu(4-yl) = O=C([C@H](CC[*:3])N[*:1])[*:2]; C18 diacid = O=C(O)CCCCCCCCCCCCCCCCC(=O)*; γGlu = O=C(O)[C@H](CCC(=O)[*:2])N[*:1]; AEEA = NCCOCCOCC(=O)O; Sar = CNCC(=O)O

As usually defined, the IC50 is the midpoint of a concentration-inhibition curve. As usually defined, the pIC50 is the IC50 on a negative log10 scale, so that one unit is a factor of ten. For orientation: pKd means −log10 of the Kd, conventionally taken in molar units. Read a low pKd as a high Kd. For the compound `CC[C@H](C)[C@H](NC(C)=O)C(=O)N[C@H]1CSSC[C@@H](C(=O)N[C@H](C(=O)NCC(=O)N[C@@H](C)C(=O)N[C@@H](CCC(=O)O)C(=O)N[C@@H](CO)C(N)=O)[C@@H](C)O)NC(=O)[C@H](CCCNC(=N)N)NC(=O)[C@H](Cc2c[nH]cn2)NC(=O)[C@H](CCC(=O)O)NC(=O)CNC(=O)[C@H](Cc2c[nH]c3ccccc23)NC(=O)[C@H](CC(=O)O)NC(=O)[C@H](CCC(N)=O)NC(=O)[C@H](Cc2c[nH]c3ccccc23)NC(=O)[C@H]([C@@H](C)CC)NC1=O` [Compound 15] (Ac-ICIWQDWGEHRCTGAES-NH2; disulfide 2-12), the IC50 in data set [1] is below 100 nM. The pIC50 in data set [1] (setting [3]) is 7.33. Also, at Human C3, the pKd was 7.85. Moreover, in data set [2] (10 mg/mL compound in 100 mM acetate pH 4), the “Solubility, Condition 1 Acetate pH 4” value was “+ (denotes solubility at the given condition, as determined by UV absorbance being less than 0.1 AU at 340 nm and the sample being clear when manually inspected.)”. For the same compound, in data set [2] (10 mg/mL compound in 100 mM acetate pH 5), the “Solubility, Condition 2 Acetate pH 5” value is reported as “− (denotes lack of solubility at the given condition, as UV absorbance at 340 nm exceeds 0.1 AU and/or it is visibly turbid or contains particles.)”. Besides, the “Solubility, Condition 3 Phosphate pH 6” value in data set [2] (10 mg/mL compound in 100 mM phosphate pH 6) is recorded as “− (denotes lack of solubility at the given condition, as UV absorbance at 340 nm exceeds 0.1 AU and/or it is visibly turbid or contains particles.)”. In addition, in data set [2] (10 mg/mL compound in 100 mM phosphate pH 7), the “Solubility, Condition 4 Phosphate pH 7” value was “+ (denotes solubility at the given condition, as determined by UV absorbance being less than 0.1 AU at 340 nm and the sample being clear when manually inspected.)”. Besides, the “Solubility, Condition 5 Phosphate pH 7.5” value in data set [2] (10 mg/mL compound in 100 mM phosphate pH 7.5) was “+ (denotes solubility at the given condition, as determined by UV absorbance being less than 0.1 AU at 340 nm and the sample being clear when manually inspected.)”.
As to `CC[C@H](C)[C@H](NC(C)=O)C(=O)N[C@H]1CSSC[C@@H](C(=O)N[C@@H](CO)C(N)=O)NC(=O)[C@H](CCCNC(=N)N)NC(=O)[C@H](Cc2c[nH]cn2)NC(=O)[C@H](CCC(=O)O)NC(=O)CNC(=O)[C@H](Cc2c[nH]c3ccccc23)NC(=O)[C@H](CC(=O)O)NC(=O)[C@H](CCC(N)=O)NC(=O)[C@H](Cc2c[nH]c3ccccc23)NC(=O)[C@H]([C@@H](C)CC)NC1=O` [Compound 21] (Ac-ICIWQDWGEHRCS-NH2; disulfide 2-12), the IC50 in data set [1] was below 100 nM. For the same compound, in data set [1] (setting [3]), the pIC50 is 7.11. Also, the pKd at Human C3 was 7.80.
As for `CC[C@H](C)[C@@H]1NC(=O)[C@@H](NC(=O)[C@H](Cc2ccc(O)cc2)NC(=O)[C@H](CCC(=O)O)NC(=O)[C@H](CO)NC(C)=O)CSSC[C@@H](C(=O)N(C)CC(=O)N[C@@H](CCC(=O)O)C(=O)N[C@@H](CCCCN)C(=O)N[C@@H](CCC(=O)N[C@@H](C)C(=O)N[C@@H](CCCCNC(=O)COCCOCCNC(=O)CC[C@H](NC(=O)COCCOCCNC(=O)CNC(=O)CC[C@H](NC(=O)CCCCCCCCCCCCCCCCC(=O)O)C(=O)O)C(=O)O)C(N)=O)C(=O)O)NC(=O)[C@H](CCCNC(=N)N)NC(=O)[C@H](Cc2c[nH]cn2)NC(=O)[C@H](CCC(=O)O)NC(=O)CN(C)C(=O)[C@H](Cc2c[nH]c3ccccc23)NC(=O)[C@H](CCC(=O)O)NC(=O)[C@H](CCC(N)=O)NC(=O)[C@H](Cc2cn(C)c3ccccc23)NC1=O` [Compound 121, Ac-SEYC(1)I[1-Me-Trp]QEW[Sar]EHRC(1)[Sar]K[γGlu]A-K([17-carboxy-heptadecanoyl][γGlu]G[Peg3][γGlu][Peg3])-NH2] (Ac-SEYCI[Trp(1-Me)]QEW[Sar]EHRC[Sar]EK[γGlu]AK([AEEA-γGlu-AEEA-Gly-γGlu-C18 diacid])-NH2; disulfide 4-14), the IC50 in data set [1] was below 250 nM. Moreover, the pKd at Human C3 is 7.52.
Take `CC[C@H](C)[C@H](NC(C)=O)C(=O)N[C@H]1CSSC[C@@H](C(=O)N[C@H](C(N)=O)[C@@H](C)O)NC(=O)[C@H](CCCNC(=N)N)NC(=O)[C@H](Cc2c[nH]cn2)NC(=O)[C@H](CCC(=O)O)NC(=O)CNC(=O)[C@H](Cc2c[nH]c3ccccc23)NC(=O)[C@H](CC(=O)O)NC(=O)[C@H](CCC(N)=O)NC(=O)[C@H](Cc2c[nH]c3ccccc23)NC(=O)[C@H]([C@@H](C)CC)NC1=O` [Compound 2] (Ac-ICIWQDWGEHRCT-NH2; disulfide 2-12): the concentration for half-maximal inhibition (IC50) in data set [1] was below 100 nM. Further, the negative-log IC50 (pIC50) in data set [1] (setting [3]) is 7.03; in data set [1] (Table 5, different residues at position 3 of Ac-IC(1)XWQDWGEHRC(1)T-NH2, read-out: IC50, CP hemolysis), above 7.00. This compound showed a negative logarithm of the Kd (pKd) on Human C3 of 7.80.
On to `CC[C@H](C)[C@H](NC(C)=O)C(=O)N[C@H]1CSSC[C@@H](C(=O)N[C@H](C(N)=O)[C@@H](C)O)NC(=O)[C@H](CCCNC(=N)N)NC(=O)[C@H](Cc2c[nH]cn2)NC(=O)[C@H](CCC(=O)O)NC(=O)CNC(=O)[C@H](Cc2c[nH]c3ccccc23)NC(=O)[C@H](CC(=O)O)NC(=O)[C@H](CCC(N)=O)NC(=O)[C@H](Cc2cn(C)c3ccccc23)NC(=O)[C@H]([C@@H](C)CC)NC1=O` [Compound 4] (Ac-ICI[Trp(1-Me)]QDWGEHRCT-NH2; disulfide 2-12), for which, in data set [1], the half-maximal inhibitory concentration (IC50) was below 100 nM. Further, the pKd on Human C3 was 8.82.
For `CC[C@H](C)[C@@H]1NC(=O)[C@@H](NC(=O)[C@H](Cc2ccccc2)NC(=O)[C@H](CCC(=O)O)NC(=O)[C@H](CO)NC(C)=O)CSCC[C@@H](C(=O)N[C@H](C(=O)NCC(=O)N[C@@H](C)C(=O)N[C@@H](CCC(=O)O)C(=O)N[C@@H](CO)C(N)=O)[C@@H](C)O)NC(=O)[C@H](CCCNC(=N)N)NC(=O)[C@H](Cc2c[nH]cn2)NC(=O)[C@H](CCC(=O)O)NC(=O)CNC(=O)[C@H](Cc2c[nH]c3ccccc23)NC(=O)[C@H](CC(=O)O)NC(=O)[C@H](CCC(N)=O)NC(=O)[C@H](Cc2cn(C)c3ccccc23)NC1=O` [Compound 151, Ac-SEFA(1)I[1-Me-Trp]QDWGEHRhC(1)TGAES-NH2] (Ac-SEFCI[Trp(1-Me)]QDWGEHR[Abu(4-yl)]TGAES-NH2; thioether 4-14), in that order: below 100 nM and 8.85.
In the case of `CC[C@H](C)[C@@H]1NC(=O)[C@@H](NC(=O)[C@H](Cc2ccccc2)NC(=O)[C@H](CCC(=O)O)NC(=O)[C@H](CO)NC(C)=O)CSSC[C@@H](C(=O)N(C)CC(=O)N[C@@H](CCC(=O)O)C(=O)NCC(=O)N[C@@H](CCC(=O)O)C(=O)NCCOCCOCC(=O)NCCOCCOCC(=O)N[C@@H](CCCCNC(=O)CC[C@H](NC(=O)CNC(=O)CC[C@H](NC(=O)CCCCCCCCCCCCCCCCCCC(=O)O)C(=O)O)C(=O)O)C(N)=O)NC(=O)[C@H](CCCNC(=N)N)NC(=O)[C@H](Cc2c[nH]cn2)NC(=O)[C@H](CCC(=O)O)NC(=O)CNC(=O)[C@H](Cc2c[nH]c3ccccc23)NC(=O)[C@H](CC(=O)O)NC(=O)[C@H](CCC(N)=O)NC(=O)[C@H](Cc2cn(C)c3ccccc23)NC1=O` [Compound 128] (Ac-SEFCI[Trp(1-Me)]QDWGEHRC[Sar]EGE[AEEA][AEEA]K([γGlu-Gly-γGlu-C20 diacid])-NH2; disulfide 4-14), the IC50 in data set [1] is below 100 nM. Further, the pKd on Human C3 is 8.19.
On the same counts, the results for `CC[C@H](C)[C@@H]1NC(=O)[C@@H](NC(=O)CN(C)C(=O)[C@H](CCC(=O)O)NC(=O)[C@H](CO)NC(C)=O)CSSC[C@@H](C(=O)N[C@H](C(=O)N[C@@H](CCC(=O)O)C(=O)N[C@@H](C)C(N)=O)[C@@H](C)O)NC(=O)[C@H](CCCNC(=N)N)NC(=O)[C@H](Cc2c[nH]cn2)NC(=O)[C@H](CCC(=O)O)NC(=O)CNC(=O)[C@H](Cc2c[nH]c3ccccc23)NC(=O)[C@H](CC(=O)O)NC(=O)[C@H](CCC(N)=O)NC(=O)[C@H](Cc2cn(C)c3ccccc23)NC1=O` [Compound 82] (Ac-SE[Sar]CI[Trp(1-Me)]QDWGEHRCTEA-NH2; disulfide 4-14) are below 100 nM and 8.27.

The record behind these values is US20220306695A1, “COMPSTATIN ANALOGUES AND THEIR MEDICAL USES” (priority 2019, published 2022).
